pIC50: −log10 of the molar value. Where two headings read alike, the source gives them in different places.

Assay [1] deals with kinases of the PI3K isoenzyme family. Particulars: cited from earlier work.
For the next assay, the system named is mammal cells. As to conditions: Rosenzweig et al. (1999); cited from earlier work.
Assay [2] addresses T1, DNA-PK (Homo sapiens (Human), UniProt P78527). As to conditions: ATP-competitive; Hardcastle et al. (2005); cited from earlier work.
The target in assay [3] is T1, DNA-PK. Kind of assay: DNA-PK/biochemical assay (FlashPlate kinase assay). Particulars: 5 μM ATP, 90 min, room temperature; read-out: Binding DNA-PK IC50. How it is done:
[…] To this end, 1.5 μg of the DNA-PK/protein complex and 100 ng of biotinylated substrate, such as, for example, PESQEAFADLWKK biotin-NH2 (“biotin-DNA-PK peptide”), in a total volume of 36.5 μl (34.25 mM HEPES/KOH, 7.85 mM Tris-HCl, 68.5 mM KCl, 5 μM ATP, 6.85 mM MgCl2, 0.5 mM EDTA, 0.14 mM EGTA, 0.69 mM DTT, pH 7.4), were incubated at room temperature for 90 min with 500 ng of DNA from calf thymus, 0.1 μCi of 33P-ATP and 1.8% of DMSO per well with or without the test compound. The reaction was stopped using 50 μl/well of 200 mM EDTA. After incubation for a further 30 min at room temperature, the liquid was removed. Each well was washed three times with 100 μl of 0.9% sodium chloride solution. A non-specific reaction (blank value) was determined using 10 μM of a proprietary kinase inhibitor. The radioactivity measurement was carried out by means of a TopCount. IC50 values were calculated in RS1. • Literature: Kashishian et al. (2003) Molecular Cancer Therapeutics 1257.

With `CCN1CCN(CC(=O)Nc2ccc(-c3cccc4c(=O)cc(N5CCOCC5)oc34)c3sc4ccccc4c23)CC1` [KU-0060648], in assay [1], the “inhibition of PI3K isoenzyme family kinases” value is given as “potently inhibited”. For the compound `O=c1cc(N2CCOCC2)oc2c(-c3ccccc3)cccc12` [LY294002], in the assay with mammal cells, the “increase in sensitivity to ionising irradiation in cellular terms” value is “only a weak increase in sensitivity to ionising irradiation”. One may read the pIC50 as the negative decadic logarithm of the IC50, by convention in mol/L. On to `O=c1cc(N2CCOCC2)oc2c(-c3cccc4c3sc3ccccc34)cccc12` [NU-7441], for which the pIC50 at DNA-PK [2] was 7.70.

For the compound `OC(c1ccsc1)C1CCCN(c2ncnc3cc(N4CCOCC4)ccc23)C1` (centres unmarked) [compound 45, [1-(7-Morpholin-4-yl-quinazolin-4-yl)-piperidin-3-yl]-thiophen-3-yl-methanol], at DNA-PK [3], the pIC50 is above 7.00. With `OC(c1nccs1)C1CCCN(c2ncnc3cc(N4CCOCC4)ccc23)C1` (centres unmarked) [compound 46, [1-(7-Morpholin-4-yl-quinazolin-4-yl)-piperidin-3-yl]-thiazol-2-yl-methanol], the negative logarithm of the IC50 (pIC50) on DNA-PK [3] is above 7.00.

Regarding `Cc1cnc(C(O)C2CCCN(c3ncnc4cc(N5CCOCC5)ccc34)C2)s1` (centres unmarked) [compound 47, (5-Methyl-thiazol-2-yl)-[1-(7-morpholin-4-ylquinazolin-4-yl)-piperidin-3-yl]-methanol], the pIC50 at DNA-PK [3] is above 7.00. Still for that read-out and setting: to `Cc1nc(C(O)C2CCCN(c3ncnc4cc(N5CCOCC5)ccc34)C2)sc1C` (centres unmarked) [compound 48, (4,5-Dimethyl-thiazol-2-yl)-[1-(7-morpholin-4-yl-quinazolin-4-yl)-piperidin-3-yl]-methanol] belongs above 7.00. The same measure, in the same setting: the value for `Cc1csc(C(O)C2CCCN(c3ncnc4cc(N5CCOCC5)ccc34)C2)n1` (centres unmarked) [compound 49, (4-Methylthiazol-2-yl)-[1-(7-morpholin-4-ylquinazolin-4-yl)-piperidin-3-yl]-methanol] was above 7.00. Same read-out and setting: the value for `O=C(c1nccs1)C1CCCN(c2ncnc3cc(N4CCOCC4)ccc23)C1` (centres unmarked) [compound 50, [1-(7-Morpholin-4-yl-quinazolin-4-yl)-piperidin-3-yl]-thiazol-2-yl-methanone] was above 7.00; that for `Cc1cnc(CC2CCCN(c3ncnc4cc(N5CCOCC5)ccc34)C2)s1` (centres unmarked) [compound 51, 4-[3-(5-Methyl-thiazol-2-ylmethyl)-piperidin-1-yl]-7-morpholin-4-yl-quinazoline] was above 7.00; that for `Cc1nc(CC2CCCN(c3ncnc4cc(N5CCOCC5)ccc34)C2)sc1C` (centres unmarked) [compound 52, 4-[3-(4,5-Dimethyl-thiazol-2-ylmethyl)-piperidin-1-yl]-7-morpholin-4-yl-quinazoline] was above 7.00. With `OC(c1ncco1)C1CCCN(c2ncnc3cc(N4CCOCC4)ccc23)C1` (centres unmarked) [compound 53, [1-(7-Morpholin-4-yl quinazolin-4-yl)-piperidin-3-yl]-oxazol-2-yl-methanol], the pIC50 on DNA-PK [3] was above 7.00.

For `Oc1nc(N2CCCCC2)c2ccc(N3CCOCC3)cc2n1` [compound 54, 7-Morpholin-4-yl-4-piperidin-1-yl-quinazolin-2-ol], the pIC50 at DNA-PK [3] is below 6.00. On the same count and under the same terms, to `Cn1ccnc1C(O)C1CCCN(c2ncnc3cc(N4CCOCC4)ccc23)C1` (centres unmarked) [compound 55, (1-Methyl-1H-imidazol-2-yl)-[1-(7-morpholin-4-yl-quinazolin-4-yl)-piperidin-3-yl]-methanol] belongs 6.30 to 7.00; to `Cc1csc(CC2CCCN(c3ncnc4cc(N5CCOCC5)ccc34)C2)n1` (centres unmarked) [compound 56, 4-[3-(4-Methyl-thiazol-2-ylmethyl)-piperidin-1-yl]-7-morpholin-4-yl-quinazoline], above 7.00. The same measure, in the same setting: to `Nc1nc(N2CCCCC2)c2ccc(N3CCOCC3)cc2n1` [compound 57, 7-Morpholin-4-yl-4-piperidin-1-yl-quinazolin-2-ylamine] belongs 6.00 to 6.30; to `N#Cc1nc(N2CCCCC2)c2ccc(N3CCOCC3)cc2n1` [compound 58, 7-Morpholin-4-yl-4-piperidin-1-yl-quinazoline-2-carbonitrile], 6.30 to 7.00; to `O=C(NC1CCCN(c2nc(Cl)nc3cc(N4CCOCC4)ccc23)C1)c1cncs1` (centres unmarked) [compound 59], above 7.00.

With `O=C(NC1CCCN(c2nc(Cl)nc3cc(N4CCOCC4)ccc23)C1)c1nccs1` (centres unmarked) [compound 60, N-[1-(2-Chloro-7-morpholin-4-yl-quinazolin-4-yl)-piperidin-3-yl]-thiazole-2-carboxamide], on DNA-PK [3], the pIC50 was above 7.00.

Take `O=C(NC1CCCN(c2nc(Cl)nc3cc(N4CCOCC4)ccc23)C1)c1cscn1` (centres unmarked) [compound 61]: at DNA-PK [3], the pIC50 was 6.30 to 7.00. Same read-out and setting: the value for `O=C(NC1CCCN(c2nc(Cl)nc3cc(N4CCOCC4)ccc23)C1)c1cccs1` (centres unmarked) [compound 64, N-[1-(2-Chloro-7-morpholin-4-yl-quinazolin-4-yl)-piperidin-3-yl]-thiophene-2-carboxamide] was 6.30 to 7.00; that for `O[C@@H](c1nccs1)C1CCCN(c2ncnc3cc(N4CCOCC4)ccc23)C1` (stereo partly drawn) [compound 65, (R)-[1-(7-Morpholin-4-ylquinazolin-4-yl)-piperidin-3-yl]-thiazol-2-yl-methanol] was above 7.00; that for `O[C@H](c1nccs1)C1CCCN(c2ncnc3cc(N4CCOCC4)ccc23)C1` (some centres unmarked) [compound 66] was above 7.00.

The record behind these values is patent publication US9126952B2, “Morpholinylquinazolines” (Merck Patent GmbH, priority 2010, dated 2015).
